Measured values published in US6737383B1, “Herbicidal oxadiazolidines” (priority 1999, dated 2004).

Experiments:
bedstraw = test: Test B pre/postemergence bedstraw; assay type: in vivo, Galium aparine
In short: (§1)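 Herbicidal effect was estimated by eye on a ten-point control scale after plants spent twelve to sixteen days in a greenhouse following soil or foliar treatment. Foliar sprays targeted plants at one to four leaves; all doses were formulated in a non-phytotoxic solvent with surfactant.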

blackgrass = test: Test B pre/postemergence blackgrass; assay type: in vivo, Alopecurus myosuroides
In short: as §1

surinam grass = test: Test B pre/postemergence surinam grass; assay type: in vivo, Brachiaria decumbens
In short: as §1

cocklebur = test: Test B pre/postemergence cocklebur; assay type: in vivo, Xanthium strumarium
In short: as §1

corn = test: Test B pre/postemergence corn; assay type: in vivo, Zea mays
In short: as §1

crabgrass = test: Test B pre/postemergence crabgrass; assay type: in vivo, Digitaria sanguinalis
In short: as §1

giant foxtail = test: Test B pre/postemergence giant foxtail; assay type: in vivo, Setaria faberii
In short: as §1

morningglory = test: Test B pre/postemergence morningglory; assay type: in vivo, Ipomoea hederacea
In short: as §1

pigweed = test: Test B pre/postemergence pigweed; assay type: in vivo, Amaranthus retroflexus
In short: as §1

soybean = test: Test B pre/postemergence soybean; assay type: in vivo, Glycine max
In short: as §1

velvetleaf = test: Test B pre/postemergence velvetleaf; assay type: in vivo, Abutilon theophrasti
In short: as §1

wheat = test: Test B pre/postemergence wheat; assay type: in vivo, Triticum aestivum
In short: as §1

wild oat = test: Test B pre/postemergence wild oat; assay type: in vivo, Avena fatua
In short: as §1

rice = test: Test B flood test rice; assay type: in vivo, Oryza sativa
In short: (§2)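 Plants were grown to the 2-leaf stage before treatment with test chemical, then held in a greenhouse for twelve to sixteen days. Injury was visually rated against untreated controls on a 0–10 scale, where 0 is no effect and 10 is complete control.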

smallflower flatsedge = test: Test B flood test smallflower flatsedge; assay type: in vivo, Cyperus difformis
In short: as §2

bamyardgrass = test: Test B flood test barnyardgrass; assay type: in vivo, Echinochloa crus-galli
In short: as §2

[1] = Preemergence, Rate 62 g/ha, scale of 0 to 10 where 0 is no effect and 10 is complete control
[2] = Preemergence, Rate 125 g/ha, 0 is no effect, 10 is complete control
[3] = Preemergence, Rate 250 g/ha, scale 0 to 10, 0 is no effect, 10 is complete control
[4] = Preemergence, Rate 500 g/ha, scale of 0 to 10 where 0 is no effect and 10 is complete control
[5] = Rate 62 g/ha, Postemergence, scale of 0 to 10 where 0 is no effect and 10 is complete control
[6] = Rate 125 g/ha, Postemergence, scale 0 to 10
[7] = Rate 500 g/ha, Postemergence, scale 0 to 10
[8] = Rate 62 g/ha, Postemergence section, flood test species, scale of 0 to 10 where 0 is no effect and 10 is complete control
[9] = Rate 125 g/ha, listed under Postemergence (flood test species), scale 0 to 10
[10] = Rate 250 g/ha, Postemergence section, flood test species
[11] = Rate 500 g/ha, listed under Postemergence (flood test species), scale 0 to 10

C=C(C)CCn1c(=O)on(C(=O)N(c2ccc(F)cc2)C(C)C)c1=O [Compound 199]
0: Bedstraw plant response rating (bedstraw; [1]) | Bedstraw plant response rating (0 to 10 scale) (bedstraw; [2]) | Bedstraw plant response rating (bedstraw; [3]) | Plant response rating, Bedstraw (bedstraw; [4]) | Bedstraw plant response rating (bedstraw; [5]) | Bedstraw plant response rating (bedstraw; [6]) | Plant response rating (0 to 10; 0 is no effect, 10 is complete control), Bedstraw (bedstraw; Rate 250 g/ha, Postemergence) | Blackgrass plant response rating (blackgrass; [5]) | B. signalgrass plant response rating (surinam grass; [1]) | B. signalgrass plant response rating (surinam grass; [5]) | B. signalgrass plant response rating (surinam grass; Rate 125 g/ha, Postemergence, scale 0 (no effect) to 10 (complete control)) | Plant response rating, B. signalgrass (surinam grass; Rate 250 g/ha, Postemergence, scale 0 to 10, 0 is no effect, 10 is complete control) | Cocklebur plant response rating (cocklebur; [1]) | Cocklebur plant response rating (0 to 10 scale) (cocklebur; [2]) | Cocklebur plant response rating (cocklebur; [3]) | Plant response rating, Cocklebur (cocklebur; [4]) | Cocklebur plant response rating (cocklebur; [5]) | Cocklebur plant response rating (cocklebur; [6]) | Plant response rating (0 to 10; 0 is no effect, 10 is complete control), Cocklebur (cocklebur; Rate 250 g/ha, Postemergence) | Corn plant response rating (corn; [1]) | Corn plant response rating (0 to 10 scale) (corn; [2]) | Corn plant response rating (corn; [3]) | Plant response rating, Corn (corn; [4]) | Corn plant response rating (corn; [5]) | Corn plant response rating (corn; [6]) | Plant response rating (0 to 10; 0 is no effect, 10 is complete control), Corn (corn; Rate 250 g/ha, Postemergence) | Corn plant response rating (corn; [7]) | Crabgrass plant response rating (crabgrass; [5]) | Giant foxtail plant response rating (giant foxtail; [5]) | Morningglory plant response rating (morningglory; [1]) | Morningglory plant response rating (0 to 10 scale) (morningglory; [2]) | Morningglory plant response rating (morningglory; [3]) | Plant response rating, Morningglory (morningglory; [4]) | Redroot pigweed plant response rating (pigweed; [5]) | Redroot pigweed plant response rating (pigweed; [6]) | Soybean plant response rating (soybean; [1]) | Soybean plant response rating (0 to 10 scale) (soybean; [2]) | Soybean plant response rating (soybean; [3]) | Plant response rating, Soybean (soybean; [4]) | Velvetleaf plant response rating (velvetleaf; [1]) | Velvetleaf plant response rating (velvetleaf; [3]) | Plant response rating, Velvetleaf (velvetleaf; [4]) | Velvetleaf plant response rating (velvetleaf; [5]) | Velvetleaf plant response rating (velvetleaf; [6]) | Plant response rating (0 to 10; 0 is no effect, 10 is complete control), Velvetleaf (velvetleaf; Rate 250 g/ha, Postemergence) | Wheat plant response rating (wheat; [1]) | Wheat plant response rating (wheat; [3]) | Plant response rating, Wheat (wheat; [4]) | Wheat plant response rating (wheat; [5]) | Wild oats plant response rating (wild oat; [1]) | Wild oats plant response rating (wild oat; [5]) | Wild oats plant response rating (wild oat; [6]) | Plant response rating (0 to 10; 0 is no effect, 10 is complete control), Wild oats (wild oat; Rate 250 g/ha, Postemergence) | Rice plant response rating (rice; [8]) | Rice plant response rating (rice; [9]) | Plant response rating (0 to 10; 0 is no effect, 10 is complete control), Rice (rice; [10]) | Rice plant response rating (rice; [11]) | S. Flatsedge plant response rating (smallflower flatsedge; [8]) | S. Flatsedge plant response rating (smallflower flatsedge; [9]) | Barnyardgrass plant response rating (bamyardgrass; [8]) | Barnyardgrass plant response rating (bamyardgrass; [9]) | Plant response rating (0 to 10; 0 is no effect, 10 is complete control), Barnyardgrass (bamyardgrass; [10])
4: Blackgrass plant response rating (blackgrass; [6]) | Morningglory plant response rating (morningglory; [5]) | Morningglory plant response rating (morningglory; [6]) | Plant response rating (0 to 10; 0 is no effect, 10 is complete control), Morningglory (morningglory; Rate 250 g/ha, Postemergence) | Wild oats plant response rating (wild oat; [3])
7: Giant foxtail plant response rating (giant foxtail; [1]) | Giant foxtail plant response rating (giant foxtail; [7]) | Redroot pigweed plant response rating (pigweed; [1]) | Redroot pigweed plant response rating (0 to 10 scale) (pigweed; [2]) | Plant response rating (0 to 10; 0 is no effect, 10 is complete control), Soybean (soybean; Rate 250 g/ha, Postemergence) | Soybean plant response rating (soybean; [7]) | Plant response rating, Wild oats (wild oat; [4]) | S. Flatsedge plant response rating (smallflower flatsedge; [11])
6: Blackgrass plant response rating (blackgrass; [1]) | B. signalgrass plant response rating (surinam grass; [3]) | Crabgrass plant response rating (crabgrass; [1]) | Crabgrass plant response rating (0 to 10 scale) (crabgrass; [2]) | Redroot pigweed plant response rating (pigweed; [7])
9: Plant response rating (0 to 10; 0 is no effect, 10 is complete control), Blackgrass (blackgrass; Rate 250 g/ha, Postemergence) | Blackgrass plant response rating (blackgrass; [7]) | Plant response rating, B. signalgrass (surinam grass; [4])
8: Plant response rating (0 to 10; 0 is no effect, 10 is complete control), Crabgrass (crabgrass; Rate 250 g/ha, Postemergence) | Crabgrass plant response rating (crabgrass; [7]) | Morningglory plant response rating (morningglory; [7]) | Barnyardgrass plant response rating (bamyardgrass; [11])
2: Bedstraw plant response rating (bedstraw; [7]) | Crabgrass plant response rating (crabgrass; [6]) | Giant foxtail plant response rating (giant foxtail; [6]) | Plant response rating (0 to 10; 0 is no effect, 10 is complete control), Giant foxtail (giant foxtail; Rate 250 g/ha, Postemergence) | Plant response rating (0 to 10; 0 is no effect, 10 is complete control), Redroot pigweed (pigweed; Rate 250 g/ha, Postemergence) | Soybean plant response rating (soybean; [5]) | Soybean plant response rating (soybean; [6]) | Wheat plant response rating (wheat; [6]) | Plant response rating (0 to 10; 0 is no effect, 10 is complete control), S. Flatsedge (smallflower flatsedge; [10])
10: Blackgrass plant response rating (0 to 10 scale) (blackgrass; [2]) | Blackgrass plant response rating (blackgrass; [3]) | Plant response rating, Blackgrass (blackgrass; [4]) | Crabgrass plant response rating (crabgrass; [3]) | Plant response rating, Crabgrass (crabgrass; [4]) | Giant foxtail plant response rating (0 to 10 scale) (giant foxtail; [2]) | Giant foxtail plant response rating (giant foxtail; [3]) | Plant response rating, Giant foxtail (giant foxtail; [4]) | Redroot pigweed plant response rating (pigweed; [3]) | Plant response rating, Redroot pigweed (pigweed; [4])
3: Cocklebur plant response rating (cocklebur; [7]) | Plant response rating (0 to 10; 0 is no effect, 10 is complete control), Wheat (wheat; Rate 250 g/ha, Postemergence)
1: B. signalgrass plant response rating (0 to 10 scale) (surinam grass; [2])
